Measurements reported in patent publication US4436751A, “Nitrobenzyl monates antibacterial compounds” (Beecham Group Limited, priority 1980, dated 1984).
Where two headings read alike, the source gives them in different places.

Tests used:
Type in all cases: cell-based
M. suipneumoniae NB12 = experiment: Anti-mycoplasmal MIC in vitro, Friis broth agarose (Table 1); conditions: Mesomycoplasma hyopneumoniae, NB12, 144 h
M. suipneumoniae MS 16 = experiment: as above; conditions: Mesomycoplasma hyopneumoniae, MS16, 144 h
[1] = tested on: M. hyosynoviae ATOC 25591; experiment: as above; conditions: 144 h
M. hyorhinis ATCC 23234 = experiment: as above; conditions: Mesomycoplasma hyorhinis, ATCC23234, 144 h
M. gallisepticum S6 = experiment: as above; conditions: Mycoplasmoides gallisepticum
M. suipneumoniae OCD 1 = experiment: as above; conditions: Mesomycoplasma hyopneumoniae, OCD1, 144 h
[2] = tested on: M. suipneumoniae J2206/183b; experiment: as above; conditions: Mesomycoplasma hyopneumoniae, 144 h
M. suipneumoniae HR(2) = experiment: as above; conditions: Mesomycoplasma hyopneumoniae, 144 h
M. suipneumoniae JF 435 = experiment: as above; conditions: Mesomycoplasma hyopneumoniae, JF435, 144 h
M. suipneumoniae Str. 11 = experiment: as above; conditions: Mesomycoplasma hyopneumoniae, STR.11, 144 h
M. dispar RCTC 10125 = experiment: as above; conditions: 144 h
M. suipneumoniae LABER = experiment: as above; conditions: Mesomycoplasma hyopneumoniae, 144 h
Sarcina lutea 8340 = experiment: Human bacteria MIC, nutrient agar with chocolated horse blood (Table 3)
Procedure: (§1) The values were determined by serial dilutions in nutrient agar with 5% chocolated horse blood after incubations for 18 hours at 37° C.

Bacillus subtilis 6633 = experiment: as above
Procedure: as §1

[3] = tested on: Haemophilus influenzae Q1; experiment: as above
Procedure: as §1

P. mirabilis 889 = experiment: as above
Procedure: as §1

[4] = tested on: Corynebacterium xerosis 9755; experiment: as above
Procedure: as §1

E. Coli NCTC 10418 = experiment: as above; conditions: Escherichia coli
Procedure: as §1

[5] = tested on: Strep. pyogenes R80/421-A; experiment: as above; conditions: Streptococcus pyogenes
Procedure: as §1

Staph. aureus Russell = experiment: as above; conditions: Staphylococcus aureus
Procedure: as §1

[6] = tested on: Pasteurella multocida 1633; experiment: as above
Procedure: as §1

Strep. faecalis 1 = experiment: as above
Procedure: as §1

Staph. aureus W2827 = experiment: as above; conditions: Staphylococcus aureus
Procedure: as §1

K. aerogenes A = experiment: as above; conditions: Klebsiella aerogenes
Procedure: as §1

Staph. aureus Oxford = experiment: as above; conditions: Staphylococcus aureus
Procedure: as §1

[7] = tested on: Ps. aeruginosa NCTC 10662; experiment: as above; conditions: Pseudomonas aeruginosa
Procedure: as §1

[8] = tested on: M. suipneumoniae ATCC 25095; experiment: Anti-mycoplasmal MIC in vitro, Friis broth agarose (Table 1); conditions: Mesomycoplasma hyopneumoniae, ATCC25095, 144 h
M. hyorhinis ATCC 25021 = experiment: as above; conditions: Mesomycoplasma hyorhinis, ATCC25021, 144 h
[9] = Haemophilus influenzae, Q1, 18 h
[10] = Corynebacterium xerosis, 9755, 18 h
[11] = Pasteurella multocida, 1633, 18 h

Measured: MIC

C/C(=C\C(=O)OCc1cc([N+](=O)[O-])cc([N+](=O)[O-])c1)CC1OCC(CC2OC2C(C)C(C)O)C(O)C1O (stereo not shown) [Example 6, 3,5-dinitrobenzyl monate A]
100 µg/mL: P. mirabilis 889; Proteus mirabilis, 889, 18 h | E. Coli NCTC 10418; NCTC10418, 18 h | K. aerogenes A; 18 h
0.025 µg/mL: M. suipneumoniae MS 16 | [1] | M. hyorhinis ATCC 23234 | M. suipneumoniae Str. 11 | M. suipneumoniae LABER | M. hyorhinis ATCC 25021
0.05 µg/mL: M. suipneumoniae NB12 | M. suipneumoniae OCD 1 | [2]; J2206/183B | M. suipneumoniae HR(2) | M. suipneumoniae JF 435 | [8]
5 µg/mL: M. gallisepticum S6; S6, 144 h
1 µg/mL: Staph. aureus Russell; 18 h | Staph. aureus W2827; W2827, 18 h
0.5 µg/mL: Bacillus subtilis 6633; Bacillus subtilis, 6633, 18 h | [3]; [9] | [6]; [11] | Staph. aureus Oxford; 18 h
0.25 µg/mL: [5]; R80/421A, 18 h
> 100 µg/mL: Sarcina lutea 8340; Micrococcus luteus, 8340, 18 h | [4]; [10] | Strep. faecalis 1; Enterococcus faecalis, 1, 18 h | [7]; NCTC10662, 18 h
≤ 0.01 µg/mL: M. dispar RCTC 10125

C/C(=C\C(=O)OCc1cc([N+](=O)[O-])cc([N+](=O)[O-])c1C)CC1OCC(CC2OC2C(C)C(C)O)C(O)C1O (stereo not shown) [Example 7, 3,5-dinitro-2-methylbenzyl monate A]
0.25 µg/mL: M. suipneumoniae NB12 | M. suipneumoniae OCD 1 | [2]; J2206/183B | M. suipneumoniae HR(2) | M. suipneumoniae JF 435 | [5]; R80/421A, 18 h | [8]
2.5 µg/mL: M. gallisepticum S6; S6, 144 h | Staph. aureus W2827; W2827, 18 h
1 µg/mL: Bacillus subtilis 6633; Bacillus subtilis, 6633, 18 h | [3]; [9] | Staph. aureus Russell; 18 h | Staph. aureus Oxford; 18 h
0.05 µg/mL: M. dispar RCTC 10125
> 100 µg/mL: Sarcina lutea 8340; Micrococcus luteus, 8340, 18 h | P. mirabilis 889; Proteus mirabilis, 889, 18 h | [4]; [10] | E. Coli NCTC 10418; NCTC10418, 18 h | Strep. faecalis 1; Enterococcus faecalis, 1, 18 h | K. aerogenes A; 18 h | [7]; NCTC10662, 18 h
5 µg/mL: [6]; [11]
0.1 µg/mL: M. suipneumoniae MS 16 | [1] | M. hyorhinis ATCC 23234 | M. suipneumoniae Str. 11 | M. suipneumoniae LABER | M. hyorhinis ATCC 25021

C/C(=C\C(=O)OCc1cccc([N+](=O)[O-])c1C)CC1OCC(CC2OC2C(C)C(C)O)C(O)C1O (stereo not shown) [Example 8, 2-methyl-3-nitrobenzyl monate A]
0.25 µg/mL: M. suipneumoniae OCD 1; M. suipneumoniae OCD 1, in vitro, 6 days 37° C., read-out: MIC | [2]; M. suipneumoniae J2206/183b, in vitro, 6 days 37° C., read-out: MIC | Bacillus subtilis 6633; Bacillus subtilis 6633, nutrient agar 5% chocolated horse blood, 18 hours 37° C., read-out: MIC | [5]; Strep. pyogenes R80/421-A, nutrient agar 5% chocolated horse blood, 18 hours 37° C., read-out: MIC
> 100 µg/mL: Sarcina lutea 8340; Micrococcus luteus, Sarcina lutea 8340, nutrient agar 5% chocolated horse blood, 18 hours 37° C., read-out: MIC | P. mirabilis 889; Proteus mirabilis, P. mirabilis 889, nutrient agar 5% chocolated horse blood, 18 hours 37° C., read-out: MIC | [4]; Corynebacterium xerosis 9755, nutrient agar 5% chocolated horse blood, 18 hours 37° C., read-out: MIC | E. Coli NCTC 10418; NCTC10418, E. coli NCTC 10418, nutrient agar 5% chocolated horse blood, 18 hours 37° C., read-out: MIC | K. aerogenes A; K. aerogenes A, nutrient agar 5% chocolated horse blood, 18 hours 37° C., read-out: MIC | [7]; NCTC10662, Ps. aeruginosa NCTC 10662, nutrient agar 5% chocolated horse blood, 18 hours 37° C., read-out: MIC
50 µg/mL: Strep. faecalis 1; Enterococcus faecalis, Strep. faecalis 1, nutrient agar 5% chocolated horse blood, 18 hours 37° C., read-out: MIC
5 µg/mL: M. gallisepticum S6; 144 h, M. gallisepticum S6, in vitro, 6 days 37° C., read-out: MIC
0.05 µg/mL: [1]; M. hyosynoviae ATOC 25591, in vitro, 6 days 37° C., read-out: MIC | M. dispar RCTC 10125; M. dispar RCTC 10125, in vitro, 6 days 37° C., read-out: MIC
0.5 µg/mL: [3]; Haemophilus influenzae Q1, nutrient agar 5% chocolated horse blood, 18 hours 37° C., read-out: MIC
2.5 µg/mL: Staph. aureus Russell; Staph. aureus Russell, nutrient agar 5% chocolated horse blood, 18 hours 37° C., read-out: MIC | [6]; Pasteurella multocida 1633, nutrient agar 5% chocolated horse blood, 18 hours 37° C., read-out: MIC | Staph. aureus W2827; Staph. aureus W2827, nutrient agar 5% chocolated horse blood, 18 hours 37° C., read-out: MIC | Staph. aureus Oxford; Staph. aureus Oxford, nutrient agar 5% chocolated horse blood, 18 hours 37° C., read-out: MIC
0.1 µg/mL: M. suipneumoniae NB12 | M. suipneumoniae MS 16 | M. hyorhinis ATCC 23234 | M. suipneumoniae HR(2) | M. suipneumoniae JF 435 | M. suipneumoniae Str. 11 | M. suipneumoniae LABER | [8] | M. hyorhinis ATCC 25021

C/C(=C\C(=O)OCc1ccc([N+](=O)[O-])c([N+](=O)[O-])c1)CC1OCC(CC2OC2C(C)C(C)O)C(O)C1O (stereo not shown) [Example 9, 3,4-dinitrobenzyl monate A]
0.25 µg/mL: M. suipneumoniae NB12 | M. suipneumoniae MS 16 | M. hyorhinis ATCC 23234 | M. suipneumoniae Str. 11 | M. suipneumoniae LABER | [3]; [9] | [5]; R80/421A, 18 h | [8] | M. hyorhinis ATCC 25021
2.5 µg/mL: Staph. aureus Russell; 18 h | [6]; [11]
1 µg/mL: [2]; J2206/183B | M. suipneumoniae JF 435 | Staph. aureus W2827; W2827, 18 h | Staph. aureus Oxford; 18 h
50 µg/mL: P. mirabilis 889; Proteus mirabilis, 889, 18 h | E. Coli NCTC 10418; NCTC10418, 18 h
0.5 µg/mL: [1] | M. suipneumoniae OCD 1 | M. suipneumoniae HR(2) | Bacillus subtilis 6633; Bacillus subtilis, 6633, 18 h
> 100 µg/mL: Sarcina lutea 8340; Micrococcus luteus, 8340, 18 h | [4]; [10] | [7]; NCTC10662, 18 h
5 µg/mL: M. gallisepticum S6; S6, 144 h
100 µg/mL: K. aerogenes A; 18 h
0.025 µg/mL: M. dispar RCTC 10125
25 µg/mL: Strep. faecalis 1; Enterococcus faecalis, 1, 18 h
